The target in assay [1] is O114933_C98 (Homo sapiens, UniProt O14933). The experiment in a line: Competitive isoTOP-ABPP, cell lysates. Type of assay: binding.
The target in assay [2] is cysteines in MDA-MB-231 and Ramos cells (Homo sapiens, UniProt Q8NDH3). Nature of the assay: Competitive isoTOP-ABPP in situ (fragment-treated cells). It counts as cell-based.
In assay [3] the target is T1, cysteines in MDA-MB-231 and Ramos cells (Homo sapiens, UniProt O75717).
T1 sequence (O75717 1-1129): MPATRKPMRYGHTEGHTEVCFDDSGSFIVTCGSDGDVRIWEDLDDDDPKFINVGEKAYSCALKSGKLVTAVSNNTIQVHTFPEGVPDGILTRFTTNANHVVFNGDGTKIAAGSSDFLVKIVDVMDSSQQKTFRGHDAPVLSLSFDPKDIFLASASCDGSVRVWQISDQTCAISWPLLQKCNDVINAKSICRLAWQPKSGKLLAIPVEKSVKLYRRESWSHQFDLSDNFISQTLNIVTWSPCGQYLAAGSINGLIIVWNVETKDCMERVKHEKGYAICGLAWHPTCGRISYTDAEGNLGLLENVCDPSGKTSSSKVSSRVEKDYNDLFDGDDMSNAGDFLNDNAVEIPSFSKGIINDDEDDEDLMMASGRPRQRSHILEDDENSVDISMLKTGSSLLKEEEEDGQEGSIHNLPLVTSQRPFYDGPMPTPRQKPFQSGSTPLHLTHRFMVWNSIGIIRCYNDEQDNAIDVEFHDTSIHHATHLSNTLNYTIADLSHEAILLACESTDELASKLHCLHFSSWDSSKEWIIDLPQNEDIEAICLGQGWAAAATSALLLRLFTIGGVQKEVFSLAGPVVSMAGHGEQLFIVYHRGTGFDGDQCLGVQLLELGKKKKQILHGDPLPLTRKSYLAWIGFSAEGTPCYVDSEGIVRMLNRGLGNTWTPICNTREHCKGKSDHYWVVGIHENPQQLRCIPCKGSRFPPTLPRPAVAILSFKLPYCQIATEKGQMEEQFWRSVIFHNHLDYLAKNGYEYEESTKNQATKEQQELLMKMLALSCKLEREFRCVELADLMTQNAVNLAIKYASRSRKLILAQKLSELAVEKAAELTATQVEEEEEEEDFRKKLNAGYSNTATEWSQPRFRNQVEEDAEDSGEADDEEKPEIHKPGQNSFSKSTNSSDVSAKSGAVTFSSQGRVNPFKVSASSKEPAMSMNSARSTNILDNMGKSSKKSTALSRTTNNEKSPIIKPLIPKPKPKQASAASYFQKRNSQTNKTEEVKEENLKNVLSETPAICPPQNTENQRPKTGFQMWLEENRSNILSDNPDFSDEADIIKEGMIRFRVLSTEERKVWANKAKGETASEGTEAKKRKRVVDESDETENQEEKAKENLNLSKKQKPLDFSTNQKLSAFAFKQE
Described as above. Type of assay: cell-based.

The target in assay [4] is cysteines in MDA-MB-231 and Ramos cells (Homo sapiens, UniProt P14635). The description is as above. It counts as cell-based.
cysteines in MDA-MB-231 and Ramos cells (Homo sapiens, UniProt P14635), sequence (P14635 whole entry): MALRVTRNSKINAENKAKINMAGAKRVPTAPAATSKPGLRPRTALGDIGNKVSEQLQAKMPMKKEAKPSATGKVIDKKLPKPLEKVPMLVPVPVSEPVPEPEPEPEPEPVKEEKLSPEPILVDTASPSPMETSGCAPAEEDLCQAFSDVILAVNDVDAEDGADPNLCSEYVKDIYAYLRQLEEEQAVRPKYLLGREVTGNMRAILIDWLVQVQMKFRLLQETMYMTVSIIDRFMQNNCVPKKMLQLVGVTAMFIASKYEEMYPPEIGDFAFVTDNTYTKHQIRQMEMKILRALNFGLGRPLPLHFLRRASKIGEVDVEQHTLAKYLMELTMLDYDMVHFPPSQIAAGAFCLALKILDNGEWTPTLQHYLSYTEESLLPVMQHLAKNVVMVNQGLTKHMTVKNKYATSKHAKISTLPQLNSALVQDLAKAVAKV

Consider 21 molecules from patent publication US10670605B2, “Cysteine reactive probes and uses thereof” (The Scripps Research Institute, priority 2015, dated 2020).

O114933_C98, sequence (O14933 whole entry, the tested form may be a part): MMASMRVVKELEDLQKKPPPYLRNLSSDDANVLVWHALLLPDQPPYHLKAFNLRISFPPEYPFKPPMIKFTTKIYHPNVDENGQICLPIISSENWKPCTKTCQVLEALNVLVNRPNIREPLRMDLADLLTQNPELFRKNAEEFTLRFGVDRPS
cysteines in MDA-MB-231 and Ramos cells (Homo sapiens, UniProt Q8NDH3), sequence (Q8NDH3 whole entry, the tested form may be a part): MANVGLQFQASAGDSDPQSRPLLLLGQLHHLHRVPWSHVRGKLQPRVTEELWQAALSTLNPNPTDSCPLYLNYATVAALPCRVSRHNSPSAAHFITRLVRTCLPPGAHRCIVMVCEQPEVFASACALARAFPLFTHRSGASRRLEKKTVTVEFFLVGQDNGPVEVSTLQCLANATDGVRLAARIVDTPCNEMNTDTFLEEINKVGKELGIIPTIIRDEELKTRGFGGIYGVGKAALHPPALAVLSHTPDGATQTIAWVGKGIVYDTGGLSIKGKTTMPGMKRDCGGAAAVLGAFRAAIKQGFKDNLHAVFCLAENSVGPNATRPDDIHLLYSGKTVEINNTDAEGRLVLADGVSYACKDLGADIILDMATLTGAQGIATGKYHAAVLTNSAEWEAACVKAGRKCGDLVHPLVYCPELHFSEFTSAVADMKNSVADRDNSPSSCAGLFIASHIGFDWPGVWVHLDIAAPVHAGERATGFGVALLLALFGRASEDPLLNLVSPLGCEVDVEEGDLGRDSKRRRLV

Turning to `O=C(/C=C/c1ccccc1)Nc1cc(C(F)(F)F)cc(C(F)(F)F)c1` [compound 26], the “isoTOP-ABPP ratio (reactivity profile), O114933_C98” value (“isoTOP-ABPP ratio … O114933_C98” for short) in assay [1] (500 μm in-vitro ramos) turned out to be 1.0.
On to `COc1ccc(C2CC(c3cccs3)=NN2C(=O)CCl)cc1` (centres unmarked) [compound 4], for which, in assay [2] (100 μM in situ 231), the “isoTOP-ABPP reactivity Q8NDH3_C81 NPEPL1” value amounted to 20.0.
For `CC1CCc2ccccc2N1C(=O)CCl` (centres unmarked) [compound 45], the “isoTOP-ABPP ratio O75717_C773” value in assay [3] (200 μM, insitu, 231) turned out to be 3.6.
For the molecule `O=C(CCl)NC(=O)NC12CC3CC(CC(C3)C1)C2` [compound 12], in assay [2] (200 μM, insitu, 231), the “isoTOP-ABPP ratio, cysteine Q8NDH3_C81” value turned out to be 20.0.
For `O=C(CCl)N1CCN(S(=O)(=O)c2ccccc2F)CC1` [compound 10], the “isoTOP-ABPP ratio, cysteine P14635_C238” value in assay [4] (200 μM, insitu, 231) is recorded as 6.7. For the same molecule, in assay [2] (200 μM, insitu, 231), the “isoTOP-ABPP ratio, cysteine Q8NDH3_C81” value was 5.7. Further, the “isoTOP-ABPP ratio, cysteine O75717_C773” value in assay [3] (200 μM, insitu, 231) was determined as 2.2.
Take `O=C(CCl)N1CCOCC1` [compound 22]: the “isoTOP-ABPP ratio … O114933_C98” value in assay [1] (500 μm in-vitro ramos) came to 2.0.
Regarding `CC(C)CCOCCNC(=O)CCl` [compound 27], the figures for the “isoTOP-ABPP ratio … O114933_C98” value in assay [1] (500 μm in-vitro ramos) and in assay [1] (500 μm in-vitro ramos_231) were 1.0 and 1.2, respectively.
In the case of `O=C(CCl)N1CCC(C(O)(c2ccccc2)c2ccccc2)CC1` [compound 20], the “isoTOP-ABPP ratio … O114933_C98” value in assay [1] (500 μm in-vitro ramos) came out at 3.9.
`CCN(CC)c1ccc(S(N)(=O)=O)cc1NC(=O)CCl` [compound 30]: the “isoTOP-ABPP ratio … O114933_C98” value in assay [1] (500 μm in-vitro ramos) came to 1.3.
As to `N#C/C(=C\c1cc(C(F)(F)F)cc(C(F)(F)F)c1)C(N)=O` [compound 23], the “isoTOP-ABPP ratio … O114933_C98” value worked out at 1.2 in assay [1] (500 μm in-vitro ramos) and 0.7 in assay [1] (500 μm in-vitro ramos_231).
For `O=C(CCl)N1CCC(Cc2ccccc2)CC1` [compound 9], the “isoTOP-ABPP reactivity P14635_C238 CCNB1” value in assay [4] (200 μM, insitu, 231) came out at 3.7.
For `O=C(CCl)NC12CC3CC(CC(C3)C1)C2` [compound 21], the “isoTOP-ABPP ratio, cysteine Q8NDH3_C81” value in assay [2] (200 μM, insitu, 231) came to 1.6.
Take `COc1ccc2c(c1)CCCN2C(=O)CCl` [compound 2]: in assay [2] (200 μM, insitu, 231), the “isoTOP-ABPP reactivity Q8NDH3_C81 NPEPL1” value is listed as 20.0.
For `Cn1cc(S(=O)(=O)N2CCOCC2)cc1C(=O)NC(=O)CCl` [compound 11], the “isoTOP-ABPP ratio, cysteine P14635_C238” value in assay [4] (100 μM in situ 231) is recorded as 0.7. The “isoTOP-ABPP ratio, cysteine O75717_C773” value in assay [3] (100 μM in situ 231) was determined as 1.2.
Regarding `COc1ccccc1OCCNC(=O)CCl` [compound 28], in assay [1] (500 μm in-vitro ramos), the “isoTOP-ABPP ratio … O114933_C98” value turned out to be 1.2.
With `C=CC(=O)N(Cc1cccnc1)c1ccc(Oc2ccccc2)c(C(F)(F)F)c1` [compound 15], in assay [1] (500 μm in-vitro ramos), the “isoTOP-ABPP ratio … O114933_C98” value stood at 1.3.
In the case of `O=C(CCl)NCCc1c[nH]c2ccccc12` [compound 13], the “isoTOP-ABPP ratio, cysteine P14635_C238” value came to 1.3 in assay [4] (200 μM, insitu, 231) and 1.5 in assay [4] (200 μM, insitu, ramos). The “isoTOP-ABPP ratio, cysteine O75717_C773” value in assay [3] (200 μM, insitu, 231) is on record as 1.1.
As for `Cc1ccc(C=C(C#N)C(=O)NCCN2CCOCC2)cc1` [compound 41], the “isoTOP-ABPP ratio P14635_C238” value in assay [4] (200 μM, insitu, 231) worked out at 0.5. Moreover, in assay [3] (200 μM, insitu, 231), the “isoTOP-ABPP ratio O75717_C773” value is on record as 1.0.
Regarding `C=CC(=O)Nc1cc(F)c(N2CCN(C(=O)OC(C)(C)C)CC2)c(F)c1` [compound 38], the “isoTOP-ABPP ratio P14635_C238” value in assay [4] (200 μM, insitu, 231) was determined as 1.8. In assay [2] (200 μM, insitu, 231), the “isoTOP-ABPP ratio Q8NDH3_C81” value came to 2.0. Also, in assay [3] (200 μM, insitu, 231), the “isoTOP-ABPP ratio O75717_C773” value is reported as 2.3.
`C=CC(=O)N(Cc1cccnc1)c1cc(C(F)(F)F)cc(C(F)(F)F)c1` [compound 31]: in assay [2] (200 μM, insitu, 231), the “isoTOP-ABPP ratio Q8NDH3_C81” value stood at 1.0.
Regarding `COc1cc2c(cc1OC)CN(C(=O)CCl)CC2` [compound 8], the “isoTOP-ABPP reactivity Q8NDH3_C81 NPEPL1” value in assay [2] (200 μM, insitu, 231) was found to be 20.0. Moreover, the “isoTOP-ABPP reactivity O75717_C773 WDHDl” value in assay [3] (200 μM, insitu, 231) amounted to 4.2.
